The supplement of paper PMC11451515

What was measured:
Conditions in all cases: 48 h
NOMO1 [1] = experiment: AUC of viability dose-response curve (% viability x log10 dose units); higher = less sensitive
Method in brief: (§1)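 Leukemia cells adapted to each medium were seeded in 1536-well plates (500 or 1000 cells/well). They were dosed with library compounds in DMSO at 11 threefold doses, 47 μM to 0.79 nM, for 48 h at 37°C. CellTiter-Glo One luminescence was normalised per plate to DMSO and cell-free wells. Area under the curve was integrated by trapezoidal rule over log10 doses on a four-parameter log-logistic fit; curves exceeding full viability were scaled and curves failing quality control removed.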

SEM cells [2] = experiment: as above
Method in brief: as §1

P12-Ichikawa [3] = experiment: as above
Method in brief: as §1

SEM cells [4] = experiment: cell viability relative to DMSO control; higher = less cytotoxic
Method in brief: (§2)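 Viability is a per-plate percentage relative to DMSO wells, with cell-free wells as background. CellTiter-Glo One luminescence was read after 48 h at 37°C on 1536-well plates (5 μl) of NOMO1 or SEM (500 cells/well) or P12-Ichikawa (1000 cells/well) leukemia cells. The cells had been adapted for at least four passages in each medium and pin-dosed with library compounds in DMSO from 47 μM to 0.79 nM in 11 threefold steps.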

NOMO1 [5] = experiment: as above
Method in brief: as §2

P12-Ichikawa [6] = experiment: as above
Method in brief: as §2

CCC(C)N(C)C(=O)c1cc2ccccc2c(-c2ccccc2Cl)n1 (centres undefined)
AUC of viability dose-response curve
Conditions	NOMO1 [1]	P12-Ichikawa [3]	SEM cells [2]
HPLM + 10% dialyzed FBS	452	462	461
RPMI 5 mM glucose + 10% FBS	473	471	460
RPMI 5 mM glucose + 10% dialyzed FBS	453	463	464

C[C@@H]1O[C@@H](O[C@H]\2CC[C@]\3(C)[C@@H]4CC[C@]5(C)[C@@H](CC[C@@]5(O)[C@H]4CCC3=C2)C/6=C/OC(=O)/C=C6)[C@H](O)[C@H](O)[C@@H]1O
SEM cells [4], HPLM + 10% dialyzed FBS
Conditions	cell viability [%]
0.000781 µM	124
0.00234 µM	121
0.00702 µM	109
0.0211 µM	79.3
0.0632 µM	11.6
0.19 µM	12.5
0.569 µM	9.21
1.71 µM	8.61
5.12 µM	8.87
15.4 µM	7.79
46.1 µM	4.4

AUC of viability dose-response curve
Conditions	NOMO1 [1]	P12-Ichikawa [3]	SEM cells [2]
HPLM + 10% dialyzed FBS	187	181	173
RPMI 5 mM glucose + 10% FBS	214	197	193
RPMI 5 mM glucose + 10% dialyzed FBS	193	173	186

CCC1=C2C=C(OC(=O)N3CCC(CC3)N4CCCCC4)C=CC2=NC\5=C1CN6C(=O)\C7=C(/C=C56)[C@@](O)(CC)C(=O)OC7
SEM cells [4], RPMI 5 mM glucose + 10% FBS
Conditions	cell viability [%]
0.000781 µM	110
0.00234 µM	127
0.00702 µM	104
0.0211 µM	106
0.0632 µM	49.5
0.19 µM	104
0.569 µM	107
1.71 µM	65.2
5.12 µM	15.4
15.4 µM	13.1
46.1 µM	9.69

AUC of viability dose-response curve
Conditions	NOMO1 [1]	P12-Ichikawa [3]	SEM cells [2]
HPLM + 10% dialyzed FBS	380	324	366
RPMI 5 mM glucose + 10% FBS	380	313	356
RPMI 5 mM glucose + 10% dialyzed FBS	380	326	353

C[Se]CCC(N)C(=O)O (centres undefined)
cell viability [%]
Conditions	NOMO1 [5]	P12-Ichikawa [6]	SEM cells [4]
HPLM + 10% dialyzed FBS, 0.000781 µM	90.1	88.7	50.5
HPLM + 10% dialyzed FBS, 0.00234 µM	90.2	86.3	87.2
HPLM + 10% dialyzed FBS, 0.00702 µM	85.7	89.6	86.1
HPLM + 10% dialyzed FBS, 0.0211 µM	95.7	84.9	94.7
HPLM + 10% dialyzed FBS, 0.0632 µM	99.3	88.4	75.6
HPLM + 10% dialyzed FBS, 0.19 µM	93	85.1	71.3
HPLM + 10% dialyzed FBS, 0.569 µM	93.1	87.4	82.8
HPLM + 10% dialyzed FBS, 1.71 µM	59.1	88.7	71.5
HPLM + 10% dialyzed FBS, 5.12 µM	83.5	78.8	86.4
HPLM + 10% dialyzed FBS, 15.4 µM	69	78.8	78.1
HPLM + 10% dialyzed FBS, 46.1 µM	73.7	78.6	72
RPMI 5 mM glucose + 10% FBS, 0.000781 µM	79.9	77.1	65.1
RPMI 5 mM glucose + 10% FBS, 0.00234 µM	83.5	84.8	83.9
RPMI 5 mM glucose + 10% FBS, 0.00702 µM	97.2	81.9	107
RPMI 5 mM glucose + 10% FBS, 0.0211 µM	84.4	82.6	95.4
RPMI 5 mM glucose + 10% FBS, 0.0632 µM	88.5	85.9	89.8
RPMI 5 mM glucose + 10% FBS, 0.19 µM	83.3	84.4	95
RPMI 5 mM glucose + 10% FBS, 0.569 µM	89.3	81.6	85.9
RPMI 5 mM glucose + 10% FBS, 1.71 µM	86.7	79.6	88.5
RPMI 5 mM glucose + 10% FBS, 5.12 µM	79.4	83.1	103
RPMI 5 mM glucose + 10% FBS, 15.4 µM	84	79	100
RPMI 5 mM glucose + 10% FBS, 46.1 µM	79	75.6	98.1
RPMI 5 mM glucose + 10% dialyzed FBS, 0.000781 µM	77.2	85.9	51.5
RPMI 5 mM glucose + 10% dialyzed FBS, 0.00234 µM	87.3	77.2	100
RPMI 5 mM glucose + 10% dialyzed FBS, 0.00702 µM	85.4	83.2	96.6
RPMI 5 mM glucose + 10% dialyzed FBS, 0.0211 µM	81.9	85.1	94.4
RPMI 5 mM glucose + 10% dialyzed FBS, 0.0632 µM	91.1	88.2	73.1
RPMI 5 mM glucose + 10% dialyzed FBS, 0.19 µM	89.1	85.8	101
RPMI 5 mM glucose + 10% dialyzed FBS, 0.569 µM	73.1	74.9	90.4
RPMI 5 mM glucose + 10% dialyzed FBS, 1.71 µM	77	76.4	84.1
RPMI 5 mM glucose + 10% dialyzed FBS, 5.12 µM	95.7	80.7	94.2
RPMI 5 mM glucose + 10% dialyzed FBS, 15.4 µM	74.2	78.1	100
RPMI 5 mM glucose + 10% dialyzed FBS, 46.1 µM	76.2	79	88.7

AUC of viability dose-response curve
Conditions	HPLM + 10% dialyzed FBS	RPMI 5 mM glucose + 10% FBS	RPMI 5 mM glucose + 10% dialyzed FBS
NOMO1 [1]	406	406	394
P12-Ichikawa [3]	407	390	388

CCN1CCN(Cc2ccc(-c3cc4c(N[C@H](C)c5ccccc5)ncnc4[nH]3)cc2)CC1
SEM cells [4], HPLM + 10% dialyzed FBS
Conditions	cell viability [%]
0.000781 µM	130
0.00234 µM	124
0.00702 µM	125
0.0211 µM	132
0.0632 µM	116
0.19 µM	116
0.569 µM	109
1.71 µM	98.5
5.12 µM	74.7
15.4 µM	51.1
46.1 µM	8.14

AUC of viability dose-response curve
Conditions	NOMO1 [1]	P12-Ichikawa [3]	SEM cells [2]
HPLM + 10% dialyzed FBS	439	448	384
RPMI 5 mM glucose + 10% FBS	460	463	375
RPMI 5 mM glucose + 10% dialyzed FBS	457	461	388

C[C@@H](Oc1cc(-n2cnc3ccc(CN4CCN(C)CC4)cc32)sc1C(N)=O)c1ccccc1C(F)(F)F
AUC of viability dose-response curve
Conditions	NOMO1 [1]	P12-Ichikawa [3]	SEM cells [2]
HPLM + 10% dialyzed FBS	280	208	233
RPMI 5 mM glucose + 10% FBS	246	202	214
RPMI 5 mM glucose + 10% dialyzed FBS	255	214	234

C[C@H]([C@H]1C\C(=C(CO)/C(=O)O1)C)[C@H]2CC[C@H]3[C@@H]4C[C@H]5O[C@]56[C@@H](O)\C=C/C(=O)[C@]6(C)[C@H]4CC[C@]23C
Conditions	cell viability [%]
NOMO1 [5], RPMI 5 mM glucose + 10% FBS, 0.000781 µM	133
NOMO1 [5], RPMI 5 mM glucose + 10% FBS, 0.00234 µM	123
NOMO1 [5], RPMI 5 mM glucose + 10% FBS, 0.00702 µM	122
NOMO1 [5], RPMI 5 mM glucose + 10% FBS, 0.0211 µM	128
NOMO1 [5], RPMI 5 mM glucose + 10% FBS, 0.0632 µM	119
NOMO1 [5], RPMI 5 mM glucose + 10% FBS, 0.19 µM	115
NOMO1 [5], RPMI 5 mM glucose + 10% FBS, 0.569 µM	28.6
NOMO1 [5], RPMI 5 mM glucose + 10% FBS, 1.71 µM	20.5
NOMO1 [5], RPMI 5 mM glucose + 10% FBS, 5.12 µM	9.85
NOMO1 [5], RPMI 5 mM glucose + 10% FBS, 15.4 µM	6.35
NOMO1 [5], RPMI 5 mM glucose + 10% FBS, 46.1 µM	3.75
P12-Ichikawa [6], HPLM + 10% dialyzed FBS, 0.000781 µM	126
P12-Ichikawa [6], HPLM + 10% dialyzed FBS, 0.00234 µM	124
P12-Ichikawa [6], HPLM + 10% dialyzed FBS, 0.00702 µM	123
P12-Ichikawa [6], HPLM + 10% dialyzed FBS, 0.0211 µM	129
P12-Ichikawa [6], HPLM + 10% dialyzed FBS, 0.0632 µM	121
P12-Ichikawa [6], HPLM + 10% dialyzed FBS, 0.19 µM	100
P12-Ichikawa [6], HPLM + 10% dialyzed FBS, 0.569 µM	11.3
P12-Ichikawa [6], HPLM + 10% dialyzed FBS, 1.71 µM	7.84
P12-Ichikawa [6], HPLM + 10% dialyzed FBS, 5.12 µM	5.43
P12-Ichikawa [6], HPLM + 10% dialyzed FBS, 15.4 µM	3.44
P12-Ichikawa [6], HPLM + 10% dialyzed FBS, 46.1 µM	1.95

AUC of viability dose-response curve
Conditions	NOMO1 [1]	P12-Ichikawa [3]	SEM cells [2]
HPLM + 10% dialyzed FBS	271	263	259
RPMI 5 mM glucose + 10% FBS	283	258	253
RPMI 5 mM glucose + 10% dialyzed FBS	286	261	260

COC(=O)C/1=C/O[C@@H](O)[C@H]\2[C@@H]1C\C=C2CO
SEM cells [4], HPLM + 10% dialyzed FBS
Conditions	cell viability [%]
0.000781 µM	98.6
0.00234 µM	116
0.00702 µM	101
0.0211 µM	114
0.0632 µM	138
0.19 µM	114
0.569 µM	126
1.71 µM	112
5.12 µM	112
15.4 µM	104
46.1 µM	76.9

AUC of viability dose-response curve
Conditions	NOMO1 [1]	P12-Ichikawa [3]	SEM cells [2]
HPLM + 10% dialyzed FBS	472	469	465
RPMI 5 mM glucose + 10% FBS	461	466	462
RPMI 5 mM glucose + 10% dialyzed FBS	467	466	454
